# Assay results reported in patent publication US20220064196A1, “EGFR Inhibitors, Compositions and Methods Thereof” (Betta Pharmaceuticals Co., Ltd., priority 2019, published 2022).
# Counter-ions that a name gives are not always drawn. Like-named read-outs stand apart in the source and are kept apart here.
# Key:
# [1] = Pharmacokinetic assay, oral administration; assay type: in vivo; details: rat, male SD rats, p.o. 5 mg/kg, plasma, formulation differs per row
# Protocol: Test 5 Pharmacokinetic Assay
# Male SD rats, oral administration (intragastric administration), 3 in each group. Animals administered by gavage were fasted overnight before the experiment, and the fasting time was from at least 12 hours before administration to 4 hours after administration. The blood was collected using the orbital vein. Time of blood collection by oral administration: 15 min, 30 min, 1 h, 2 h, 4 h, 7 h, 24 h. The blood collection volume was 300 uL, and after anticoagulation with 2.0% EDTA, the blood was centrifuged at 4000 rpm for 5 min, and the blood plasma was taken for about 100 uL, and placed in −20° C. for examination. The plasma sample was analyzed using liquid chromatography tandem mass spectrometry (LC-MS/MS). Plasma concentration-time data for individual animals were analyzed using WinNonlin (V4.1, Pharsight) software with a non-compartmental model and the pharmacokinetic parameters of the test compounds were calculated.
# [2] = biological target: Ba/F3-Del19/T790M/C797S (Homo sapiens, UniProt P00533, T790M/C797S, cells depend on it, form not given); test: Ba/F3-Del19/T790M/C797S cells proliferation assay (CellTiter Glo); assay type: cell-based; details: cell proliferation, 72 h, read-out: Ba/F3-Del19/T790M/C797S IC50
# Protocol: (§1) a) The medium was preheated in a 37°0 C. water bath in advance.
# (§2) b) Remove the cryogenic vials from the liquid nitrogen tank, quickly put it into a 37° C. water bath, and completely melt it in 1 min.
# (§3) c) Transfer the cell suspension to a 15 mL centrifuge tube containing 8 mL medium, centrifuge 1000 rpm, 5 min.
# (§4) d) Discard the supernatant, resuspend the cells in 1 mL medium, and transfer to a 75 cm^2 flask containing 15 mL medium, culture the cells in an incubator at 37° C., 5% CO2.
# (§5) a) The medium was preheated in a 37° C. water bath in advance.
# (§6) b) Collect cell to a 15 mL centrifuged tube, centrifuge at 1000 rpm for 5 min. Discard the supernatant, count, and make the cell density at 1×10^4 cells/mL, then place it in a 37° C., 5% CO2 incubator.
# (§7) a) The test compound (20 mM stock solution) was diluted to 200uM with 100% DMSO as starting concentration then 3-fold serial diluted with “9+0” concentrations. in a 96-well dilution plate (Cat # P-05525, Labcyte);
# (§8) b) The above compound solution was diluted 1:20 times with culture medium to prepare a 10 fold working solution;
# (§9) a) Take cells in log phase growth, centrifuge at 1000 rpm for 5 min, then resuspend the cells with culture medium, then count cells;
# (§10) b) Cells were seeded to 96-well cell culture plate with density at 2000 cells/well;
# (§11) a) Compounds prepared at step 2 were added to cell plate with 15 μL per well, the final concentrations were 1000,333, 111.1, 37,12.3, 4.1, 1.4, 0.5, 0.2 and 0 nM, and the final concentration of DMSO was 0.5%. The blank control well was a culture medium (0.5% DMSO);
# (§12) b) The cells were incubated for an additional 72 h in the incubator.
# (§13) a) Remove the 96-well cell culture plate and add 50 μl of CTG reagent (CellTiter Glo kit, promega, Cat # G7573).
# (§14) b) Plate was shaked for 2 min and then let it cool for 10 min at room temperature.
# (§15) c) The Luminescence signal value was read using a PerkinElmer reader. Experimental data analysis
# (§16) Data were analyzed using GraphPad Prism 6.0 software to obtain a fitted curve of compound activity.
# (§17) Fit the Compound IC50 from non-linear regression equation:
# (§18) Y=Bottom+(Top-Bottom)/(1+10((LogIC50-X)×Hill Slope));
# (§19) X: The log of the concentration of the compound; Y: Luminescence value.
# (§20) The cells proliferation assay results are expressed with IC50, shown as Table 2.
# [3] = biological target: EGFR L858R/T790M/C797S (Homo sapiens, UniProt P00533, C797S/L858R/T790M); test: Kinase assay (mobility shift), EGFR L858R/T790M/C797S; assay type: biochemical; details: numeric values
# Protocol: [Worded in the source for another variant; this variant is reported under the same test.] Test 1 Kinase Assay for EGFR Del19/T790M/C797S and EGFR Wildtype
# Enzyme reaction protocol are as follows:
# 1. Preparing 1* Kinase buffer as followed.
# 2. Preparing Compound Concentration Gradient: Compounds were tested at a concentration of 300 nM, diluted to 100-fold final concentration in 100% DMSO solution in 96-well plates, and compounds were diluted 3 times with Precision, 10 concentrations. Each concentration of the compound was then further diluted to a 5-fold final concentration of the intermediate dilution solution using 1* Kinase buffer.
# 3.5 μL of each of the prepared intermediate dilution compounds was separately added to the compound wells of the 384-well plate, and each concentration was tested for duplicate wells; 5 μL of 5% DMSO was added to the negative control wells and the positive control wells, respectively.
# 4. 2.5-fold final concentration of the kinase solution was prepared using 1*Kinase buffer.
# 5. Add 10 μL of 2.5-fold final concentration of kinase solution to the compound well and positive control well; add 10 μL of 1*Kinase buffer to the negative control well.
# 6. Centrifuge at 1000 rpm for 30 seconds, shake the reaction plate and incubate for 10 minutes at room temperature.
# 7. A mixed solution of 2.5 times the final concentration of ATP and Kinase substrate (5-FAM-EEPLYWSFPAKKK-CONH2) was prepared using 1*Kinase buffer.
# 8. 10 μL of a 2.5-fold final concentration of a mixed solution of ATP and a substrate was added to initiate the reaction.
# 9. Centrifuge the 384-well plate at 1000 rpm for 30 seconds, mix by shaking, and incubate at room temperature for the corresponding time.
# 10. Add 30 μL of the stop solution to stop the kinase reaction, centrifuge at 1000 rpm for 30 seconds, and mix by shaking.
# 11. Read the conversion rate with Caliper EZ Reader.
# Convert conversion values to inhibition values:
# Percent inhibition 32 (max-conversion)/(max-min)*100.
# “max” stands for the mean value of the positive control well ratio; “min” stands for the mean value of the negative control well.
# Fit the data in log(inhibitor) vs. response Variable slope of GraphPad Prism 5 to obtain IC50 values.
# Equation used is: Y=Bottom+(Top-Bottom)/(1+(IC50/X)^HillSlope)
# [4] = biological target: Ba/F3-L858R/T790M/C797S (Homo sapiens, UniProt P00533, T790M/C797S/L858R, cells depend on it); test: Ba/F3-L858R/T790M/C797S cells proliferation assay (CellTiter Glo); assay type: cell-based; details: cell proliferation, 72 h, read-out: Ba/F3-L858R/T790M/C797S IC50
# Protocol: as §1, §2, §3, §4, §5, §6, §7, §8, §9, §10, §11, §12, §13, §14, §15, §16, §17, §18, §19, §20
# [5] = system: A431 (WT); test: A431 cells proliferation assay (CellTiter Glo); assay type: cell-based; details: Homo sapiens, A-431; cell proliferation, 72 h
# Protocol: Test 4 A431 Cells Proliferation Assay
# DMEM and 10% FBS and 1% PS.
# as §5, §2, §3, §4, §6
# a) The test compound (20 mM stock solution) was diluted to 2 mM with 100% DMSO as starting concentration then 3-fold serial diluted with “9+0” concentrations. in a 96-well dilution plate (Cat # P-05525, Labcyte);
# b) The above compound solution was diluted 1:40 times with culture medium to prepare a 5 fold working solution;
# as §9
# b) Cells were seeded to 96-well cell culture plate with density at 5000 cells/well;
# a) Compounds prepared at step 2 were added to cell plate with 40 μL per well, the final concentrations were 10000, 3333,1111.1, 370.4, 123.5, 41.2, 13.7, 4.6, 1.5 and 0 nM, and the final concentration of DMSO was 0.5%. The blank control well was a culture medium (0.5% DMSO);
# as §12
# a) Remove the 96-well cell culture plate and add 60 μl of CTG reagent (CellTiter Glo kit, promega, Cat # G7573).
# as §14
# c) The Luminescence signal value was read using a PerkinElmer reader.
# Experimental Data Analysis
# as §16, §17
# Y=Bottom+(Top-Bottom)/(1+10((LogIC50-X)×HillSlope));
# as §19
# The cells proliferation assay results are expressed with IC50, shown as Table 3.
# Sequence of EGFR L858R/T790M/C797S (P00533 25-1210 T790M/C797S/L858R): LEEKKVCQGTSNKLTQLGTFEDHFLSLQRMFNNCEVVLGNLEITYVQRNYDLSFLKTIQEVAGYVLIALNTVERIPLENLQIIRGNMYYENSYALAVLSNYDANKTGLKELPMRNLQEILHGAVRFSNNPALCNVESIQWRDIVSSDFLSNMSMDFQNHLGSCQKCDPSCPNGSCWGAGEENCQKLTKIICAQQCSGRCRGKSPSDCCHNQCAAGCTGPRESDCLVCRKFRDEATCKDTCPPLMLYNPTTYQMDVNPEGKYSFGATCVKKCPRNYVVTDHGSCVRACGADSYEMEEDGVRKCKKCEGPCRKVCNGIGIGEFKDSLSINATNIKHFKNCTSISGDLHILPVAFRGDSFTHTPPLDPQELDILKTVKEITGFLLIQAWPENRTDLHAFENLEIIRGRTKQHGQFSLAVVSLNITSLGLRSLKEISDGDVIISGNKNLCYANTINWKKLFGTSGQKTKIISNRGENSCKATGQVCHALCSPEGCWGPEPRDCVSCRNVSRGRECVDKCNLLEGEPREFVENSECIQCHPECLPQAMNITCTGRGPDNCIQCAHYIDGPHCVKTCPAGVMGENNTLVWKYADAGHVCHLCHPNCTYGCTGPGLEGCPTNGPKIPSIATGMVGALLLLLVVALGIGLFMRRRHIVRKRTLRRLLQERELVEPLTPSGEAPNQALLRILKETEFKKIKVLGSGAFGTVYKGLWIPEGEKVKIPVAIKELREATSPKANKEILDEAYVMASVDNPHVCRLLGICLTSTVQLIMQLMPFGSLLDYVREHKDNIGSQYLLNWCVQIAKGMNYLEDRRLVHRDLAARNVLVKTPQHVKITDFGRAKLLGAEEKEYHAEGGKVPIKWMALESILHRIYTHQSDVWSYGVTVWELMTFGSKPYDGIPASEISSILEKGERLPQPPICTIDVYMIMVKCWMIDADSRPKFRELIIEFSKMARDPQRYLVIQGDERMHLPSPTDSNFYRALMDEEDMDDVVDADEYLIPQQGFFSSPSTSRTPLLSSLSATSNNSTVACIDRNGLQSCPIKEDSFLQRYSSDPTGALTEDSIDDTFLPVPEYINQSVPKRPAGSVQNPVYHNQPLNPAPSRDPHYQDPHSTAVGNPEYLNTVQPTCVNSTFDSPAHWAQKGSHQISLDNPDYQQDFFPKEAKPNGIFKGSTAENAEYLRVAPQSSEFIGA
# Sequence of Ba/F3-Del19/T790M/C797S (P00533 with tags, fused parts or gaps DEL746-750/T790M/C797S, form open): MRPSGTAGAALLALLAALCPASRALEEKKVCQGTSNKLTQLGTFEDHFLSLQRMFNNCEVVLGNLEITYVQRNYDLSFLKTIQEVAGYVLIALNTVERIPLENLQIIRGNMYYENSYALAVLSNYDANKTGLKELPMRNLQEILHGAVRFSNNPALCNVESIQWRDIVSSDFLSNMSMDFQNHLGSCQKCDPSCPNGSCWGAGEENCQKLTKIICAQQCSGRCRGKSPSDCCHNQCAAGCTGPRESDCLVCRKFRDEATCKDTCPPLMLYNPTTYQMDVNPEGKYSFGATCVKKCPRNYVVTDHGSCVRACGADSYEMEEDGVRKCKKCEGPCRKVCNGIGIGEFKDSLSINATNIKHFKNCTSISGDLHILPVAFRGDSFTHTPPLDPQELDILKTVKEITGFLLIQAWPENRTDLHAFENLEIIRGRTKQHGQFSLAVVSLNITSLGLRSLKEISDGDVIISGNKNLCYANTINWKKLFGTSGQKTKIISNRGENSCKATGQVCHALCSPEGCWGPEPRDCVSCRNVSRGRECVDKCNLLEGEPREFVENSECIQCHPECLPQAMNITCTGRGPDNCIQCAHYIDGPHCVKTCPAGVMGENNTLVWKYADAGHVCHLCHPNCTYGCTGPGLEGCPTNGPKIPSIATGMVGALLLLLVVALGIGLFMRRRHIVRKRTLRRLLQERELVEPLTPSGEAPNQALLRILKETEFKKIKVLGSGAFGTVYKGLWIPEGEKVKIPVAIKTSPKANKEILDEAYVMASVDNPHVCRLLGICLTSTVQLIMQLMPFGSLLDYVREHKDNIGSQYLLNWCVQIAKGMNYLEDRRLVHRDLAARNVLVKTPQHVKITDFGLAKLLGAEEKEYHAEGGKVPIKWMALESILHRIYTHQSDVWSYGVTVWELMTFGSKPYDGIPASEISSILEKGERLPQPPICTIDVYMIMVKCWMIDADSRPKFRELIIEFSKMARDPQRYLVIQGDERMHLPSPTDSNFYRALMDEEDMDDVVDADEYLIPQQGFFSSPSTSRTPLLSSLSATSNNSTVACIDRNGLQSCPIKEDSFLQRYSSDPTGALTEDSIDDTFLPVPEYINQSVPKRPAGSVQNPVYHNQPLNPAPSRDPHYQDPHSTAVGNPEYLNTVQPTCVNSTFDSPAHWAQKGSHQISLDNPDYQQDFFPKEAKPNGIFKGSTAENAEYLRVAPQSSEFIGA
# Sequence of Ba/F3-L858R/T790M/C797S (P00533 whole entry T790M/C797S/L858R): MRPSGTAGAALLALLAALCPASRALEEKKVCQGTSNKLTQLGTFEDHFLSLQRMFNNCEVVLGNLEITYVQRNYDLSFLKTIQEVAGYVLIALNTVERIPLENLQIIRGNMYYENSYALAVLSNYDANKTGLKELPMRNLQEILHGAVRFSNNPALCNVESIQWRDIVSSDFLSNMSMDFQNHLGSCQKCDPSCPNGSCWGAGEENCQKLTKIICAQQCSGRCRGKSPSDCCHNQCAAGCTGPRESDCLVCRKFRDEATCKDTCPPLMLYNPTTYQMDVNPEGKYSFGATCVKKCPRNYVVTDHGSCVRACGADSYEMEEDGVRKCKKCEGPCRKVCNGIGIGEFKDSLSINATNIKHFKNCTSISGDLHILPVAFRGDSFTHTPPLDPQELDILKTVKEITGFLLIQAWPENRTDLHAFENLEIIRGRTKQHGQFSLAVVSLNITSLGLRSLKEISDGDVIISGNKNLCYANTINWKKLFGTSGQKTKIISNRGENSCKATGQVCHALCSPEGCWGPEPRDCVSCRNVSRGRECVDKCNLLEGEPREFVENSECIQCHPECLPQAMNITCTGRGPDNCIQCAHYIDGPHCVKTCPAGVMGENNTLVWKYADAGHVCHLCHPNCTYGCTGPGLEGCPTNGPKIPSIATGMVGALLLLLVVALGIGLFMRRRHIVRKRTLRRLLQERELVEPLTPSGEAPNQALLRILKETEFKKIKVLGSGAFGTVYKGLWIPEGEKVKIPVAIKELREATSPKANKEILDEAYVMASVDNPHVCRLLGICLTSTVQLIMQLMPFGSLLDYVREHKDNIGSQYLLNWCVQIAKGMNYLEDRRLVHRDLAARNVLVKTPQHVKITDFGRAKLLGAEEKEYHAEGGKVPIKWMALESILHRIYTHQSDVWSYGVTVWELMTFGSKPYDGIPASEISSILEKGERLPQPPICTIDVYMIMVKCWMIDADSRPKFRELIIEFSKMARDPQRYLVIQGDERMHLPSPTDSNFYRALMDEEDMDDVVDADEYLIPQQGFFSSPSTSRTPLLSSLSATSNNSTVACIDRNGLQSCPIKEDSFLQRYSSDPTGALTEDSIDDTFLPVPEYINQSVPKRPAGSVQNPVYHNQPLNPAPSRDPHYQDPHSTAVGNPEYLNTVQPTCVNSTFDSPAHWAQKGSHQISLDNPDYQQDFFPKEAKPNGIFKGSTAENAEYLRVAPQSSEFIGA
SMILES,GI50 ([2]; class symbols) [nM],IC50 [3] [nM],GI50 ([4]; class symbols) [nM],IC50 [5] [nM],GI50 ([2]; numeric values) [nM],AUC(0-t) [1] [ng·h/mL],Cmax [1] [ng/mL],Tmax [1] [h],half-life [1] [h],GI50 ([4]; numeric values) [nM]
"CCN1CC2(C1)CN(c1ccc(Nc3ncc(Cl)c(Nc4ccccc4P(C)(C)=O)n3)cc1C)C2 [Comparative compound B, (2-((5-chloro-2-((4-(6-ethyl-2,6-diazaspiro[3.3]heptan-2-yl)-3-methylphenyl)amino)pyrimidin-4-yl)amino)phenyl)dimethylphosphine oxide, reference compound]",,,,,,202,67.2,2.75,4.09,
"Cc1cc(Nc2ncc(Cl)c(Nc3ccccc3P(C)(C)=O)n2)ccc1N1CC2(CCC(N)CC2)C1 [Example 3, (2-((2-((4-(7-amino-2-azaspiro[3.5]nonan-2-yl)-3-methylphenyl)amino)-5-chloropyrimidin-4-yl)amino)phenyl)dimethylphosphine oxide]",10 to 50,2.8,10 to 50,,,,,,,
"CN(C)C1CC2(CCN(c3ccc(Nc4nccc(Nc5ccccc5P(C)(C)=O)n4)cc3Cl)CC2)C1 [Example 7, (2-((2-((3-chloro-4-(2-(dimethylamino)-7-azaspiro[3.5]nonan-7-yl)phenyl)amino)pyrimidin-4-yl)amino)phenyl)dimethylphosphine oxide]",> 50,7.8,> 50,341,,,,,,
"CP(C)(=O)c1ccccc1Nc1ccnc(Nc2ccc(N3CCC4(CC3)CC(N)C4)c(Cl)c2)n1 [Example 9, (2-((2-((4-(2-amino-7-azaspiro[3.5]nonan-7-yl)-3-chlorophenyl)amino)pyrimidin-4-yl)amino)phenyl)dimethylphosphine oxide]",> 50,11,> 50,,,,,,,
"CN(C)C1CCC2(CC1)CN(c1ccc(Nc3ncc(Cl)c(Nc4ccccc4P(C)(C)=O)n3)cc1Cl)C2 [Example 10, (2-((5-chloro-2-((3-chloro-4-(7-(dimethylamino)-2-azaspiro[3.5]nonan-2-yl)phenyl)amino)pyrimidin-4-yl)amino)phenyl)dimethylphosphine oxide]",,0.7,,41.6,10.2,443,35.1,4,9.06,24.7
"CP(C)(=O)c1ccccc1Nc1nc(Nc2ccc(N3CCC4(CC3)CC(N)C4)cc2)ncc1Cl [Example 16, (2-((2-((4-(2-amino-7-azaspiro[3.5]nonan-7-yl)phenyl)amino)-5-chloropyrimidin-4-yl)amino)phenyl)dimethylphosphine oxide hydrochloride]",,,,,8,,,,,6.9
"CP(C)(=O)c1ccccc1Nc1nc(Nc2ccc(N3CCC4(CC3)CC(N)C4)c(C(F)(F)F)c2)ncc1Cl [Example 18, (2-((2-((4-(2-amino-7-azaspiro[3.5]nonan-7-yl)-3-(trifluoromethyl)phenyl)amino)-5-chloropyrimidin-4-yl)amino)phenyl)dimethylphosphine oxide]",10 to 50,16,10 to 50,,,,,,,

# More lines, main results first:
GI50 ([2]; class symbols) [nM],IC50 [3] [nM],GI50 ([4]; class symbols) [nM],IC50 [5] [nM],GI50 ([2]; numeric values) [nM],SMILES,AUC(0-t) [1] [ng·h/mL],Cmax [1] [ng/mL],Tmax [1] [h],half-life [1] [h],GI50 ([4]; numeric values) [nM]
10 to 50,1.5,10 to 50,,,"CN(C)C1CCC2(CC1)CN(c1ccc(Nc3ncc(Cl)c(Nc4ccccc4P(C)(C)=O)n3)cc1C1CC1)C2 [Example 5, (2-((5-chloro-2-((3-cyclopropyl-4-(7-(dimethylamino)-2-azaspiro[3.5]nonan-2-yl)phenyl)amino)pyrimidin-4-yl)amino)phenyl)dimethylphosphine oxide]",,,,,
,2.6,10 to 50,,26.3,"CP(C)(=O)c1ccccc1Nc1nc(Nc2ccc(N3CC4(CCC(N)CC4)C3)c(Cl)c2)ncc1Cl [Example 11, (2-((2-((4-(7-amino-2-azaspiro[3.5]nonan-2-yl)-3-chlorophenyl)amino)-5-chloropyrimidin-4-yl)amino)phenyl)dimethylphosphine oxide]",,,,,
10 to 50,2.3,10 to 50,,,"CNC1CC2(CCN(c3ccc(Nc4ncc(Cl)c(Nc5ccccc5P(C)(C)=O)n4)cc3Cl)CC2)C1 [Example 20, (2-((5-chloro-2-((3-chloro-4-(2-(methylamino)-7-azaspiro[3.5]nonan-7-yl)phenyl)amino)pyrimidin-4-yl)amino)phenyl)dimethylphosphine oxide]",,,,,
≤ 10,1.1,10 to 50,30,,"CN(C)C1CC2(CCN(c3ccc(Nc4ncc(Cl)c(Nc5ccccc5P(C)(C)=O)n4)cc3F)CC2)C1 [Example 30, (2-((5-chloro-2-((4-(2-(dimethylamino)-7-azaspiro[3.5]nonan-7-yl)-3-fluorophenyl)amino)pyrimidin-4-yl)amino)phenyl)dimethylphosphine oxide]",,,,,
